Data taken from the supplement of paper PMC13380429.

What was measured:
Conditions in all cases: 72 h
[1] = test system: Caco-2; assay: cell viability relative to DMSO; higher = less toxic
[2] = test system: Calu-3; assay: as above
[3] = test system: HepG2; assay: as above
[4] = test system: U2OS; assay: as above
[5] = test system: Vero E6; assay: as above
[6] = test system: Caco-2; assay: relative viability EC50 (midpoint between 100% and the lowest measured viability); higher = less toxic
[7] = test system: Calu-3; assay: as above
[8] = test system: HepG2; assay: as above
[9] = test system: U2OS; assay: as above
[10] = test system: Vero E6; assay: as above
[11] = test system: Caco-2; assay: drug sensitivity score (DSS) for viability; higher = more toxic; extreme values may be limits of the assay
[12] = test system: Calu-3; assay: as above
[13] = test system: HepG2; assay: as above
[14] = test system: U2OS; assay: as above
[15] = test system: Vero E6; assay: as above

| SMILES | cell viability ([1]; 1 nM) | cell viability ([1]; 10 nM) | cell viability ([1]; 100 nM) | cell viability ([1]; 1000 nM) | cell viability ([1]; 10000 nM) | cell viability ([2]; 1 nM) | cell viability ([2]; 10 nM) | cell viability ([2]; 100 nM) | cell viability ([2]; 1000 nM) | cell viability ([2]; 10000 nM) | cell viability ([3]; 1 nM) | cell viability ([3]; 10 nM) | cell viability ([3]; 100 nM) | cell viability ([3]; 1000 nM) | cell viability ([3]; 10000 nM) | cell viability ([4]; 1 nM) | cell viability ([4]; 10 nM) | cell viability ([4]; 100 nM) | cell viability ([4]; 1000 nM) | cell viability ([4]; 10000 nM) | cell viability ([5]; 1 nM) | cell viability ([5]; 10 nM) | cell viability ([5]; 100 nM) | cell viability ([5]; 1000 nM) | cell viability ([5]; 10000 nM) | relative viability EC50 [6] | relative viability EC50 [7] | relative viability EC50 [8] | relative viability EC50 [9] | relative viability EC50 [10] | drug sensitivity score [11] | drug sensitivity score [12] | drug sensitivity score [13] | drug sensitivity score [14] | drug sensitivity score [15] |
| --- | --- | --- | --- | --- | --- | --- | --- | --- | --- | --- | --- | --- | --- | --- | --- | --- | --- | --- | --- | --- | --- | --- | --- | --- | --- | --- | --- | --- | --- | --- | --- | --- | --- | --- | --- |
| O=C(NC1CCC1)c1ccc(C#Cc2cccc(F)c2)nc1 | 92.4% | 102% | 96.5% | 98.9% | 95.4% | 96.1% | 98.6% | 98.8% | 103% | 90.7% | 91.7% | 93.9% | 89.4% | 85.8% | 93% | 104% | 102% | 96.3% | 100% | 91.6% | 98.6% | 98.5% | 96.8% | 90% | 92.1% | > 10 µM | > 10 µM | > 10 µM | > 10 µM | > 10 µM | 0 | 0 | 0 | 0 | 0 |
| O=C(Oc1ccc(Br)cc1)N1CCN2CCC1CC2 | 101% | 105% | 94.2% | 98% | 102% | 97.5% | 101% | 101% | 100% | 95.7% | 97.7% | 101% | 97% | 103% | 108% | 99% | 102% | 104% | 99% | 98.4% | 94.2% | 101% | 93.5% | 95.5% | 104% | > 10 µM | > 10 µM | > 10 µM | > 10 µM | > 10 µM | 0 | 0 | 0 | 0 | 0 |
| O=C1CC2(CCCC2)CC(=O)N1CCNC[C@H]1COc2ccccc2O1 | 95.4% | 89% | 99.9% | 98.5% | 101% | 92.5% | 107% | 98.4% | 107% | 96.3% | 108% | 108% | 93.2% | 110% | 98.3% | 103% | 97% | 97.2% | 96.3% | 101% | 99.4% | 101% | 106% | 92.6% | 97.8% | > 10 µM | > 10 µM | > 10 µM | > 10 µM | > 10 µM | 0 | 0 | 0 | 0 | 0 |
